Measured values: US20230375530A1, “HUMAN BLOOD-BRAIN BARRIER MODEL FOR IMMUNOLOGICAL STUDIES” (WISCONSIN ALUMNI RESEARCH FOUNDATION, priority 2020, published 2023)

Columns and labels:
Passage 1 ECs (WTC11) = test: EC proliferation (Ki67 immunocytochemistry, cell cycle analysis); format: cell-based, human; conditions: CHIR vs DMSO
Procedure: Images were analyzed using FIJI (ImageJ) software. For epifluorescence images, 5 fields (20×) were analyzed per well, with 3-4 wells per treatment condition. For quantification of cell number, EC colonies were manually outlined, and the Analyze Particles function was used to estimate the number of nuclei within the EC colonies. Nuclei outside the EC colonies were manually counted. EC purity (% EC) was calculated as the number of nuclei within EC colonies relative to total nuclei. To estimate % GLUT-1^+ ECs, cells within the EC colonies with membrane-localized GLUT-1 immunoreactivity (e.g., arrowheads in FIG. 24B) were manually counted. To estimate % Ki67^+ ECs, cells within the EC colonies with at least one nuclear-localized Ki67 punctum were manually counted. For quantification of fluorescence intensity in epifluorescence images, EC colonies were manually outlined, and the Measure function was used to obtain the mean fluorescence intensity for each image channel (fluorophore). A cell-free area of the plate was similarly quantified for background subtraction. Following background subtraction, the mean fluorescence intensity of each protein of interest was normalized to the mean fluorescence intensity of Hoechst to correct for effects of cell density. For confocal images, 3-4 fields (100×) containing only VE-cadherin^+ ECs were analyzed per well, with 4 wells per treatment condition. […]

CD31+ Passage 1 ECs = test: Dextran accumulation assay (fluid-phase endocytosis); format: cell-based, human; conditions: 10 kDa dextran, 2 h, 37° C., CHIR vs DMSO
Procedure: A fixable, Alexa Fluor 488-conjugated dextran with an average molecular weight of […] (Invitrogen) was used as a tracer to estimate total fluid-phase endocytosis. Dextran was added at 10 μM to the medium of Passage 1 cultures. Plates were incubated on rotating platforms at 37° C. or 4° C. for 2 h. Medium was removed and cells were washed once with DPBS, and then incubated with Accutase for 10 min at 37° C. Cell suspensions were passed through 40 μm cell strainers into 4× volume of DMEM/F-12 and centrifuged for 5 min, 200×g. Cells were resuspended in MACS buffer and incubated with the CD31-APC antibody (Miltenyi Biotec) for 30 min at 4° C., protected from light. Cell suspensions were brought to a volume of 5 mL with MACS buffer and centrifuged at 4° C. for 5 min, 200×g. Pellets were resuspended in DPBS supplemented with 4% paraformaldehyde and incubated for 15 min at room temperature, protected from light. Cells were centrifuged for 5 min, 200×g. Pellets were resuspended in MACS buffer and analyzed on a BD FACSCalibur flow cytometer (BD Biosciences). FlowJo software was used to gate CD31^+ cells and quantify geometric mean fluorescence intensity and coefficient of variation (CV) of dextran.

SMILES: Cc1c[nH]c(-c2cnc(NCCNc3ccc(C#N)cn3)nc2-c2ccc(Cl)cc2Cl)n1 [CHIR, CHIR 99021]
- EC proliferation (Passage 1 ECs (WTC11)): increased EC proliferation
- distribution of dextran intensities (CD31+ Passage 1 ECs): broadening of the distribution of dextran intensities
- geometric mean dextran signal (CD31+ Passage 1 ECs): did not change the geometric mean dextran signal
